Experiment: mn = molality of the nth substance listed, in mol/kg
Conditions: 100 kPa, Liquid

CCCCn1cc[n+](C)c1.F[B-](F)(F)F [1-butyl-3-methylimidazolium tetrafluoroborate] + CN(C)C=O
Alternating current cell with electrodes
Conditions	molar conductivity [S·m2/mol]
283.15 K, m1 = 5.542e-05	0.007204
283.15 K, m1 = 0.0002915	0.00709
283.15 K, m1 = 0.0004895	0.007031
283.15 K, m1 = 0.0006942	0.006981
283.15 K, m1 = 0.001153	0.006893
283.15 K, m1 = 0.001938	0.006777
283.15 K, m1 = 0.002927	0.006662
283.15 K, m1 = 0.003888	0.00657
283.15 K, m1 = 0.005903	0.006415
283.15 K, m1 = 0.008004	0.006288
283.15 K, m1 = 0.009964	0.006189
283.15 K, m1 = 0.012	0.0061
283.15 K, m1 = 0.01485	0.00599
288.15 K, m1 = 0.0001289	0.007713
288.15 K, m1 = 0.0002628	0.007644
288.15 K, m1 = 0.000427	0.007581
288.15 K, m1 = 0.0006069	0.007526
288.15 K, m1 = 0.001022	0.007427
288.15 K, m1 = 0.001697	0.007306
288.15 K, m1 = 0.002546	0.007188
288.15 K, m1 = 0.003454	0.007086
288.15 K, m1 = 0.005179	0.006929
288.15 K, m1 = 0.007043	0.006794
288.15 K, m1 = 0.008772	0.006689
288.15 K, m1 = 0.01186	0.006533
288.15 K, m1 = 0.01492	0.006408
293.15 K, m1 = 0.000111	0.00828
293.15 K, m1 = 0.0002943	0.008172
293.15 K, m1 = 0.0004483	0.008108
293.15 K, m1 = 0.000694	0.008027
293.15 K, m1 = 0.001218	0.007899
293.15 K, m1 = 0.001996	0.007759
293.15 K, m1 = 0.002935	0.007628
293.15 K, m1 = 0.003937	0.007515
293.15 K, m1 = 0.005916	0.007336
293.15 K, m1 = 0.007933	0.00719
293.15 K, m1 = 0.01009	0.007059
293.15 K, m1 = 0.01201	0.00696
293.15 K, m1 = 0.01495	0.006833
298.15 K, m1 = 0.0001246	0.008822
298.15 K, m1 = 0.0003199	0.0087
298.15 K, m1 = 0.000527	0.008612
298.15 K, m1 = 0.000691	0.008555
298.15 K, m1 = 0.001175	0.008424
298.15 K, m1 = 0.001926	0.008273
298.15 K, m1 = 0.002929	0.008121
298.15 K, m1 = 0.003956	0.007996
298.15 K, m1 = 0.005953	0.007802
298.15 K, m1 = 0.008044	0.00764
298.15 K, m1 = 0.009999	0.007512
298.15 K, m1 = 0.01205	0.007397
298.15 K, m1 = 0.0149	0.007265
303.15 K, m1 = 0.0001037	0.00939
303.15 K, m1 = 0.0002814	0.009262
303.15 K, m1 = 0.000494	0.00916
303.15 K, m1 = 0.0007407	0.009069
303.15 K, m1 = 0.001192	0.00894
303.15 K, m1 = 0.001886	0.00879
303.15 K, m1 = 0.002913	0.008621
303.15 K, m1 = 0.003912	0.008489
303.15 K, m1 = 0.006107	0.008261
303.15 K, m1 = 0.007974	0.008107
303.15 K, m1 = 0.009993	0.007966
303.15 K, m1 = 0.01195	0.007849
303.15 K, m1 = 0.01492	0.007699
308.15 K, m1 = 5.763e-05	0.009991
308.15 K, m1 = 0.0002447	0.009826
308.15 K, m1 = 0.0004495	0.009716
308.15 K, m1 = 0.0006821	0.009621
308.15 K, m1 = 0.001183	0.009467
308.15 K, m1 = 0.001933	0.009295
308.15 K, m1 = 0.002911	0.009124
308.15 K, m1 = 0.003919	0.008981
308.15 K, m1 = 0.005927	0.008756
308.15 K, m1 = 0.008008	0.008573
308.15 K, m1 = 0.009997	0.008426
308.15 K, m1 = 0.01201	0.008298
308.15 K, m1 = 0.0149	0.00814
313.15 K, m1 = 9.063e-05	0.0105
313.15 K, m1 = 0.0002952	0.01034
313.15 K, m1 = 0.0004868	0.01024
313.15 K, m1 = 0.0007015	0.01015
313.15 K, m1 = 0.001177	0.009997
313.15 K, m1 = 0.001951	0.009811
313.15 K, m1 = 0.002946	0.009626
313.15 K, m1 = 0.003906	0.009482
313.15 K, m1 = 0.005912	0.009242
313.15 K, m1 = 0.007925	0.009053
313.15 K, m1 = 0.00996	0.008895
313.15 K, m1 = 0.01199	0.008759
313.15 K, m1 = 0.01511	0.008574
318.15 K, m1 = 9.401e-05	0.01103
318.15 K, m1 = 0.0002791	0.01089
318.15 K, m1 = 0.0004526	0.01079
318.15 K, m1 = 0.0006468	0.01071
318.15 K, m1 = 0.001144	0.01054
318.15 K, m1 = 0.001896	0.01035
318.15 K, m1 = 0.0029	0.01015
318.15 K, m1 = 0.003892	0.009988
318.15 K, m1 = 0.005917	0.00973
318.15 K, m1 = 0.00798	0.009527
318.15 K, m1 = 0.009945	0.009368
318.15 K, m1 = 0.01195	0.009227
318.15 K, m1 = 0.01488	0.009038

CCn1cc[n+](C)c1.F[B-](F)(F)F [1-ethyl-3-methylimidazolium tetrafluoroborate] + CN(C)C=O
Direct current cell with electrodes
Conditions	molar conductivity [S·m2/mol]
283.15 K, m1 = 0.0001021	0.007524
283.15 K, m1 = 0.0002894	0.00744
283.15 K, m1 = 0.0004617	0.007387
283.15 K, m1 = 0.000707	0.007326
283.15 K, m1 = 0.001158	0.007238
283.15 K, m1 = 0.001876	0.007128
283.15 K, m1 = 0.002909	0.007001
283.15 K, m1 = 0.00391	0.006899
283.15 K, m1 = 0.006046	0.006724
283.15 K, m1 = 0.008043	0.006596
283.15 K, m1 = 0.01002	0.006492
283.15 K, m1 = 0.01201	0.006403
283.15 K, m1 = 0.0149	0.006286
288.15 K, m1 = 9.159e-05	0.008075
288.15 K, m1 = 0.0002695	0.007983
288.15 K, m1 = 0.0005098	0.007901
288.15 K, m1 = 0.0006932	0.007851
288.15 K, m1 = 0.001168	0.007746
288.15 K, m1 = 0.001915	0.007619
288.15 K, m1 = 0.002887	0.007489
288.15 K, m1 = 0.003934	0.007374
288.15 K, m1 = 0.005914	0.007199
288.15 K, m1 = 0.007975	0.007057
288.15 K, m1 = 0.009937	0.006944
288.15 K, m1 = 0.01205	0.00684
288.15 K, m1 = 0.01487	0.006715
293.15 K, m1 = 0.0001225	0.008604
293.15 K, m1 = 0.0002931	0.008516
293.15 K, m1 = 0.0004907	0.008442
293.15 K, m1 = 0.0007255	0.008372
293.15 K, m1 = 0.001177	0.008263
293.15 K, m1 = 0.001892	0.00813
293.15 K, m1 = 0.002911	0.007981
293.15 K, m1 = 0.003932	0.00786
293.15 K, m1 = 0.005979	0.007668
293.15 K, m1 = 0.007979	0.00752
293.15 K, m1 = 0.009955	0.007398
293.15 K, m1 = 0.01193	0.007292
293.15 K, m1 = 0.0148	0.007155
298.15 K, m1 = 0.0001133	0.009167
298.15 K, m1 = 0.0002704	0.009077
298.15 K, m1 = 0.000473	0.008993
298.15 K, m1 = 0.0006719	0.008926
298.15 K, m1 = 0.001151	0.008798
298.15 K, m1 = 0.001932	0.008639
298.15 K, m1 = 0.00291	0.008486
298.15 K, m1 = 0.003882	0.008361
298.15 K, m1 = 0.005957	0.008152
298.15 K, m1 = 0.007912	0.007996
298.15 K, m1 = 0.009961	0.007859
298.15 K, m1 = 0.012	0.007742
298.15 K, m1 = 0.01485	0.007598
303.15 K, m1 = 0.0001433	0.009709
303.15 K, m1 = 0.0002976	0.009622
303.15 K, m1 = 0.000507	0.009532
303.15 K, m1 = 0.0007136	0.00946
303.15 K, m1 = 0.001172	0.00933
303.15 K, m1 = 0.001894	0.009172
303.15 K, m1 = 0.002913	0.008999
303.15 K, m1 = 0.003926	0.008861
303.15 K, m1 = 0.005879	0.008649
303.15 K, m1 = 0.007956	0.008471
303.15 K, m1 = 0.009924	0.00833
303.15 K, m1 = 0.01202	0.0082
303.15 K, m1 = 0.01489	0.00805
308.15 K, m1 = 0.0001026	0.01031
308.15 K, m1 = 0.0003641	0.010155
308.15 K, m1 = 0.0005016	0.010095
308.15 K, m1 = 0.0006664	0.010033
308.15 K, m1 = 0.001147	0.009884
308.15 K, m1 = 0.001947	0.009697
308.15 K, m1 = 0.002894	0.009525
308.15 K, m1 = 0.003883	0.009379
308.15 K, m1 = 0.00584	0.009149
308.15 K, m1 = 0.007991	0.008948
308.15 K, m1 = 0.00998	0.008792
308.15 K, m1 = 0.01192	0.008661
308.15 K, m1 = 0.01486	0.008494
313.15 K, m1 = 9.519e-05	0.010895
313.15 K, m1 = 0.0002775	0.010772
313.15 K, m1 = 0.000472	0.010677
313.15 K, m1 = 0.0006836	0.010592
313.15 K, m1 = 0.001159	0.010438
313.15 K, m1 = 0.001948	0.010242
313.15 K, m1 = 0.002909	0.010057
313.15 K, m1 = 0.003934	0.009897
313.15 K, m1 = 0.005955	0.009647
313.15 K, m1 = 0.007964	0.009449
313.15 K, m1 = 0.009905	0.009289
313.15 K, m1 = 0.01192	0.009147
313.15 K, m1 = 0.0152	0.008968
318.15 K, m1 = 0.0001002	0.011475
318.15 K, m1 = 0.0002722	0.011357
318.15 K, m1 = 0.0004294	0.011275
318.15 K, m1 = 0.0006853	0.011165
318.15 K, m1 = 0.001173	0.011
318.15 K, m1 = 0.001899	0.010808
318.15 K, m1 = 0.002947	0.010593
318.15 K, m1 = 0.003909	0.010433
318.15 K, m1 = 0.005941	0.010163
318.15 K, m1 = 0.007935	0.009952
318.15 K, m1 = 0.009999	0.00977
318.15 K, m1 = 0.012	0.009623
318.15 K, m1 = 0.01494	0.009458
